Results from patent US7635572B2, “Methods for conducting assays for enzyme activity on protein microarrays” (Life Technologies Corporation, priority 2004, dated 2009).
Like-named read-outs stand apart in the source and are kept apart here.

Assays:
[1] = molecular target: plurality of kinases (Table 5) (Homo sapiens, UniProt P16591); assay: Further analysis of a plurality of inhibitors and a plurality of kinases on microarray (Example IX, Table 5); assay type: biochemical; conditions: plate H5; inhibitor 100 uM;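 further: inhibition of each kinase by the inhibitors is given as a qualitative level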;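 on Inhibition level, FYN: level 0 no or unclear inhibition to Level 2 substantial inhibition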;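 on Inhibition level, Homo sapiens in: level 0 none or unclear Level 1 marginal Level 2 substantial inhibition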;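 on Inhibition level, Homo sapiens, o: level 0 none or unclear Level 1 marginal Level 2 substantial inhibition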;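 on Inhibition level, MAP2K4: level 0 none or unclear Level 1 marginal Level 2 substantial inhibition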;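 on Inhibition level, PIM1: level 0 no or unclear inhibition to Level 2 substantial inhibition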;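 on Inhibition level, STK13: level 0 no or unclear inhibition to Level 2 substantial inhibition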;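 on Inhibition level, STK4: level 0 no or unclear inhibition to Level 2 substantial inhibition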
Chain of plurality of kinases (Table 5) (Homo sapiens, UniProt P16591) (P16591 whole entry): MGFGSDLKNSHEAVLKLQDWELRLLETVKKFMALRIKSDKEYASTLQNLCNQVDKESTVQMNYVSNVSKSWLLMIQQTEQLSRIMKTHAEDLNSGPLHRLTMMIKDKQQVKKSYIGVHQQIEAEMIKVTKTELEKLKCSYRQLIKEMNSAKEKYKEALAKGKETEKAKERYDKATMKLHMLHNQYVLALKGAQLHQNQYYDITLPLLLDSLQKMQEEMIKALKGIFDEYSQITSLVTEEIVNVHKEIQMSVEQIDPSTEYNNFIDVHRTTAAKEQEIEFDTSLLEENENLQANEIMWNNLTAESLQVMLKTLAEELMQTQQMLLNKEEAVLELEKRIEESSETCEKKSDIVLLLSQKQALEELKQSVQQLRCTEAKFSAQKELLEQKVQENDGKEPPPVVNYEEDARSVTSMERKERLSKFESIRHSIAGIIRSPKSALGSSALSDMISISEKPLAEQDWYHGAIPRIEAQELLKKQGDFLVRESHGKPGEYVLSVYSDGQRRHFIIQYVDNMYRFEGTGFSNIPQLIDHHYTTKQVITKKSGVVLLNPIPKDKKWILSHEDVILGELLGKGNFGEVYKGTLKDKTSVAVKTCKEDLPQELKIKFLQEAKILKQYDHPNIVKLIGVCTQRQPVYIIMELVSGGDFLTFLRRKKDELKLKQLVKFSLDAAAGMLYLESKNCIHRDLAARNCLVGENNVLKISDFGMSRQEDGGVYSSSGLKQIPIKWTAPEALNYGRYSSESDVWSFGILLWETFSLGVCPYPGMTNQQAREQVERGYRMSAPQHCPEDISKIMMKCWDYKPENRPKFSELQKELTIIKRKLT

[2] = molecular target: plurality of kinases (Table 5) (Homo sapiens, UniProt Q7KZI7); assay: as above; assay type: biochemical; conditions: plate C4; inhibitor 100 uM
Chain of plurality of kinases (Table 5) (Homo sapiens, UniProt Q7KZI7) (Q7KZI7 whole entry): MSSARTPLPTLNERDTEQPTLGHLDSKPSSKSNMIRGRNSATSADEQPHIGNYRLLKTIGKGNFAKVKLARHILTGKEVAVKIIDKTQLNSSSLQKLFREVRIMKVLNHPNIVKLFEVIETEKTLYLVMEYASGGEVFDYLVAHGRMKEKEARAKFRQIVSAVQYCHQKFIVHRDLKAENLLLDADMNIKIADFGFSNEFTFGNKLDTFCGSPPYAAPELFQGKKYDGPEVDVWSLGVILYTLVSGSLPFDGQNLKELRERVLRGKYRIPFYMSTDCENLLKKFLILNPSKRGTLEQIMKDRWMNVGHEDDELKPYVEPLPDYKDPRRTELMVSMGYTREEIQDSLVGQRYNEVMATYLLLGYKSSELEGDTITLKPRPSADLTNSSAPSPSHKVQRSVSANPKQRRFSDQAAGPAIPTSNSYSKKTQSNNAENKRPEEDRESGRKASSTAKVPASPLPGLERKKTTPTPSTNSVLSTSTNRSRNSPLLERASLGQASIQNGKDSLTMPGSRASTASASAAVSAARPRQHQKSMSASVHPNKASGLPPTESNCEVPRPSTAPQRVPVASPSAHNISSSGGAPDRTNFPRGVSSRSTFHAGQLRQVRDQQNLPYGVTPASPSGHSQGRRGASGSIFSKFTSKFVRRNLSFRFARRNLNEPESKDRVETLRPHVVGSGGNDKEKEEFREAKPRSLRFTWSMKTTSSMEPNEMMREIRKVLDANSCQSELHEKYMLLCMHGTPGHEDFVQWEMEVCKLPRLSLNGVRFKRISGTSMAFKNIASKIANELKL

[3] = molecular target: plurality of kinases (Table 5) (Homo sapiens, UniProt P06241); assay: as above; assay type: biochemical
Chain of plurality of kinases (Table 5) (Homo sapiens, UniProt P06241) (P06241 whole entry): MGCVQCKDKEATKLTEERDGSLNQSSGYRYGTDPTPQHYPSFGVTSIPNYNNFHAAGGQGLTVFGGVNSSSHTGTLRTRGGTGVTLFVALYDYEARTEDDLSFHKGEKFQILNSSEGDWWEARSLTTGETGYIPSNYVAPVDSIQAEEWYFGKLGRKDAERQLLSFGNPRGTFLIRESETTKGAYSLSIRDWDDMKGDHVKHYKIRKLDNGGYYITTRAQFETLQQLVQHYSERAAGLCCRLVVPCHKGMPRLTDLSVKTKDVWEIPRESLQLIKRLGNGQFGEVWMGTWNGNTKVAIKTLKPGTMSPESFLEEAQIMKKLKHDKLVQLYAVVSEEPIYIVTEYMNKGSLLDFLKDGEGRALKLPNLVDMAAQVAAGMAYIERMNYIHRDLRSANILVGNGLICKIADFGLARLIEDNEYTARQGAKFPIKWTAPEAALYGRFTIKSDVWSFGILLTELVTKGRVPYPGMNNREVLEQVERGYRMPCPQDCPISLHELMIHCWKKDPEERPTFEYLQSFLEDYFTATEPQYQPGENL

[4] = molecular target: plurality of kinases (Table 5) (Homo sapiens, UniProt P09769); assay: as above; assay type: biochemical; conditions: plate B10
[5] = test system: plurality of kinases (Table 5); assay: as above; assay type: biochemical; conditions: for Inhibition level, Homo sapiens c: plate F4; for Inhibition level, Homo sapiens, o: plate F5; for Inhibition level, Homo sapiens, B: plate F7; for Inhibition level, Homo sapiens in: plate F9; for Inhibition level, Homo sapiens p: plate F10
[6] = molecular target: T1, plurality of kinases (Table 5) (Homo sapiens, UniProt Q9UQB9); assay: as above; assay type: biochemical; conditions: plate G11; inhibitor 100 uM
T1 sequence (Q9UQB9 1-309): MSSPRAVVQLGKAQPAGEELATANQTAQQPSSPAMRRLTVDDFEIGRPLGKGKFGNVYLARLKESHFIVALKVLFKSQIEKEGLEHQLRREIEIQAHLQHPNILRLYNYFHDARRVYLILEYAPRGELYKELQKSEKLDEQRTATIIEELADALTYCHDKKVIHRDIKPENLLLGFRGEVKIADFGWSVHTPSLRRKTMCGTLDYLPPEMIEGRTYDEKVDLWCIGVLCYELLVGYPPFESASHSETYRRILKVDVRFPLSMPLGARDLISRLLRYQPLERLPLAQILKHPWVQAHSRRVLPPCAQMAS

[7] = molecular target: plurality of kinases (Table 5) (Homo sapiens, UniProt P24723); assay: as above; assay type: biochemical; conditions: plate B3
Chain of plurality of kinases (Table 5) (Homo sapiens, UniProt P24723) (P24723 whole entry): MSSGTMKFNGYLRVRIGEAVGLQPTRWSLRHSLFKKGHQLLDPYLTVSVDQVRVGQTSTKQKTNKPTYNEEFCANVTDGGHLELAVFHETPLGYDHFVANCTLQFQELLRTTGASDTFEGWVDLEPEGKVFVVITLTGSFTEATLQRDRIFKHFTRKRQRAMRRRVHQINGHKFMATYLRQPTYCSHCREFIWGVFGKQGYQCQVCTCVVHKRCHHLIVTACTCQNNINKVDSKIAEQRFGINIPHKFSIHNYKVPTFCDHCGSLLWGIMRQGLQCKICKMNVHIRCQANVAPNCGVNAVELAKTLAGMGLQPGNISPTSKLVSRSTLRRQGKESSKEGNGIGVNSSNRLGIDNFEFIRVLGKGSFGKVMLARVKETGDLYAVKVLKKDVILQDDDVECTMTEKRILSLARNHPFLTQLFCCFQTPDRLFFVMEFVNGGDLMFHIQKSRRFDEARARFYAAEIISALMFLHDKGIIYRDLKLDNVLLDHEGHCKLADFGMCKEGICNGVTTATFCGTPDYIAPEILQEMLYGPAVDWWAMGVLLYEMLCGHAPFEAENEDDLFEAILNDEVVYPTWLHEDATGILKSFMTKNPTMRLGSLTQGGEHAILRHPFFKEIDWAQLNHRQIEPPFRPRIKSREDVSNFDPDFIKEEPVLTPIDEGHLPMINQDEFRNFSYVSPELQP

[8] = molecular target: plurality of kinases (Table 5) (Homo sapiens, UniProt Q05655); assay: as above; assay type: biochemical; conditions: plate B2
Chain of plurality of kinases (Table 5) (Homo sapiens, UniProt Q05655) (Q05655 whole entry): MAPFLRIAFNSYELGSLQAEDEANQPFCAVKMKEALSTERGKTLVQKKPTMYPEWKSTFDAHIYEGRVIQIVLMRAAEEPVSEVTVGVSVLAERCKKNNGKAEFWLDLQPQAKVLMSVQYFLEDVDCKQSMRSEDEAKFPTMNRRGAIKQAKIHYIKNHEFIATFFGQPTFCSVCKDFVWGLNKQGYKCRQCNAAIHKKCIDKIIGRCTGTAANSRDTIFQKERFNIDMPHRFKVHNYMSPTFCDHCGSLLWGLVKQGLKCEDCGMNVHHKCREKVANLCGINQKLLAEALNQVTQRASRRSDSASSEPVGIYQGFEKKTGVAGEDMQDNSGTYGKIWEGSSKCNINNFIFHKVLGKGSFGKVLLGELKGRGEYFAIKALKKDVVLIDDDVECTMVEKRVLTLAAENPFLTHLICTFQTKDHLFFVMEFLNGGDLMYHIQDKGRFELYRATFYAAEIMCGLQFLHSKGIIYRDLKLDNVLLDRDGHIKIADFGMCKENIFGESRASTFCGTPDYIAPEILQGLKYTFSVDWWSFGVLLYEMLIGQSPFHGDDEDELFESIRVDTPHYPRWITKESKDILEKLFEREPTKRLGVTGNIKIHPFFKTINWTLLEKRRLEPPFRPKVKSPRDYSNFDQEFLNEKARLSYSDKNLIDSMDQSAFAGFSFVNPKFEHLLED

[9] = molecular target: T2, plurality of kinases (Table 5) (Homo sapiens, UniProt Q13043); assay: as above; assay type: biochemical; conditions: plate D6
T2 sequence (Q13043 1-487): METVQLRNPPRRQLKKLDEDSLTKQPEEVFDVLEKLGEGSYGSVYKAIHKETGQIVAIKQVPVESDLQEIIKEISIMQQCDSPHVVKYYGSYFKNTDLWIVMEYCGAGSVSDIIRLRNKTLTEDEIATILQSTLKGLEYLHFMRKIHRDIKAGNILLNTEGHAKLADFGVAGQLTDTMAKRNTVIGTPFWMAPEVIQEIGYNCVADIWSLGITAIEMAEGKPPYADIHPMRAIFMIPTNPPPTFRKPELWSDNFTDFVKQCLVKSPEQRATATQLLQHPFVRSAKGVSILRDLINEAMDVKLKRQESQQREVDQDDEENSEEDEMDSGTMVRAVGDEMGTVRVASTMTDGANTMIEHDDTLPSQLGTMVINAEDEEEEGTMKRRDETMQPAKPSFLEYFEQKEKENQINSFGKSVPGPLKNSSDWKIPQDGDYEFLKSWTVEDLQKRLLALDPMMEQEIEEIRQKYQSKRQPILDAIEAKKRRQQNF

[10] = molecular target: plurality of kinases (Table 5) (Homo sapiens, UniProt Q9Y6E0); assay: as above; assay type: biochemical; conditions: plate F11; inhibitor 100 uM
Chain of plurality of kinases (Table 5) (Homo sapiens, UniProt Q9Y6E0) (Q9Y6E0 whole entry): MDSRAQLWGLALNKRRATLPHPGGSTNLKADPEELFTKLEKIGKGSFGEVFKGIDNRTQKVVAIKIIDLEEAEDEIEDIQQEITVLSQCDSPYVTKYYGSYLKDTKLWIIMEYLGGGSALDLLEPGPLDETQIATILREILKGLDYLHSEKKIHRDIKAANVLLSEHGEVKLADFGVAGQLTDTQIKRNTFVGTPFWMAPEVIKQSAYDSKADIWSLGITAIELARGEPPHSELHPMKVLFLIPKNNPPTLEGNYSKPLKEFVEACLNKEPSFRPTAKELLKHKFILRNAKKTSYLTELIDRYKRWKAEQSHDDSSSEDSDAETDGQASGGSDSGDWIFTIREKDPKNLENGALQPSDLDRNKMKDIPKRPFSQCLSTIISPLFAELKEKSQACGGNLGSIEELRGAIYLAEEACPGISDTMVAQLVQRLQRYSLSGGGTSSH

[11] = molecular target: plurality of kinases (Table 5) (Homo sapiens, UniProt P11309); assay: as above; assay type: biochemical
Chain of plurality of kinases (Table 5) (Homo sapiens, UniProt P11309) (P11309 whole entry): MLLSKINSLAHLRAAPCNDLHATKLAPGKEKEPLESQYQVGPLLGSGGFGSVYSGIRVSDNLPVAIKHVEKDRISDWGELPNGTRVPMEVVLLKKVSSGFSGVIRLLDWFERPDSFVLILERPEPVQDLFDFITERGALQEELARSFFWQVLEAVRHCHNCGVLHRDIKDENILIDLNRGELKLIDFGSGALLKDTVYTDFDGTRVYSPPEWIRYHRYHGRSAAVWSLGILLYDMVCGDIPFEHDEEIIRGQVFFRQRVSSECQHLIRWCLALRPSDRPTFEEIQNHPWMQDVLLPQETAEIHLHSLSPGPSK

[12] = molecular target: plurality of kinases (Table 5) (Homo sapiens, UniProt O75716); assay: as above; assay type: biochemical; conditions: plate C3
Chain of plurality of kinases (Table 5) (Homo sapiens, UniProt O75716) (O75716 whole entry): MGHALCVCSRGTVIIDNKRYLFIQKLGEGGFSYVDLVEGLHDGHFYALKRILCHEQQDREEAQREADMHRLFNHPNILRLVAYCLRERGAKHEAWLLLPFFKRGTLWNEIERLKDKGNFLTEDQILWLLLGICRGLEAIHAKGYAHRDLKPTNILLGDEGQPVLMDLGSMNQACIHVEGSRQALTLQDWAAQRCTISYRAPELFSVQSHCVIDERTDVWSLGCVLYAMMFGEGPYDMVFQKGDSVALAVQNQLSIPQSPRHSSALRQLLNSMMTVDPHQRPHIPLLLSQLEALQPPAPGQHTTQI

[13] = molecular target: T3, plurality of kinases (Table 5) (Homo sapiens, UniProt P45985); assay: as above; assay type: biochemical
T3 sequence (P45985 1-399): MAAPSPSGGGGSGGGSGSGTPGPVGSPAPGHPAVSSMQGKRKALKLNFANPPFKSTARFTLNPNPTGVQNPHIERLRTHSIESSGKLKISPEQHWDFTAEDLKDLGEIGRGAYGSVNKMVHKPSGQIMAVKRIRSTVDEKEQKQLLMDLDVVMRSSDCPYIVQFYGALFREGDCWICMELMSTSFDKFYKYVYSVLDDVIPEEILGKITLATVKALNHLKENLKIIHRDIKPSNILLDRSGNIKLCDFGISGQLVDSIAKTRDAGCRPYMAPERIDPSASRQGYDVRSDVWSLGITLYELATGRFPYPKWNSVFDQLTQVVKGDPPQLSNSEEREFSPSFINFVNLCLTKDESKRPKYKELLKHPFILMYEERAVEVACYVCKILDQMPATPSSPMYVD

39 kinases (Table 4) = conditions: known general specificities of the inhibitors, Table 3; cited from earlier work
[14] = plate A4, Domain 0, inhibitor 100 uM

Row | Compound | Inhibition level, FER [1] | Inhibition level, MARK2 [2] | Inhibition level, FGR ([4]; inhibitor 100 uM) | Inhibition level, Homo sapiens, S ([5]; plate E9, inhibitor 100 uM) | Inhibition level, Homo sapiens, s ([5]; plate E11, inhibitor 100 uM) | Inhibition level, Homo sapiens, s ([5]; plate F3, inhibitor 100 uM) | Inhibition level, Homo sapiens c ([5]; inhibitor 100 uM) | Inhibition level, Homo sapiens, o ([5]; inhibitor 100 uM) | Inhibition level, Homo sapiens, S ([5]; plate F6, inhibitor 100 uM) | Inhibition level, Homo sapiens, B ([5]; inhibitor 100 uM) | Inhibition level, Homo sapiens, s ([5]; plate F8, inhibitor 100 uM) | Inhibition level, Homo sapiens in ([5]; inhibitor 100 uM) | Inhibition level, Homo sapiens p ([5]; inhibitor 100 uM) | Inhibition level, STK13 [6] | Inhibition level, PRKCH ([7]; inhibitor 100 uM) | Inhibition level, PRKCD ([8]; inhibitor 100 uM) | Inhibition level, STK4 ([9]; inhibitor 100 uM) | Inhibition level, STK24 [10] | Inhibition level, STK16 ([12]; inhibitor 100 uM) | Inhibition level, MAP2K4 ([13]; plate E6, inhibitor 100 uM) | also measured
1 | O=c1c(-c2ccc(O)cc2)coc2cc(O)cc(O)c12 [Genistein] | 2 | 2 | 2 | 2 | 2 | 1 | 2 | 2 | 0 | 2 | 0 | 1 | 2 | 2 | 2 | 0 | 0 | 2 | 0 | 2 | Inhibition level, FYN ([3]; plate A4, Domain 0, Genistein <3.7 mM): 1; Inhibition level, FYN [3, 14]: 2; Inhibition level, FGR ([4]; Genistein, conc. not given): 2; Inhibition level, Homo sapiens, s ([5]; plate F3, Genistein, conc. not given): 0; Inhibition level, Homo sapiens, o ([5]; Genistein, conc. not given): 0; Inhibition level, Homo sapiens, S ([5]; plate F6, Genistein, conc. not given): 0; Inhibition level, Homo sapiens, B ([5]; Genistein, conc. not given): 0; Inhibition level, Homo sapiens, s ([5]; plate F8, Genistein, conc. not given): 0; Inhibition level, Homo sapiens in ([5]; Genistein, conc. not given): 0; Inhibition level, Homo sapiens p ([5]; Genistein, conc. not given): 2; Inhibition level, PRKCH ([7]; Genistein, conc. not given): 0; Inhibition level, PRKCD ([8]; Genistein, conc. not given): 0; Inhibition level, STK4 ([9]; Genistein, conc. not given): 0; Inhibition level, PIM1 ([11]; plate C2, Genistein <3.7 mM): 0; Inhibition level, PIM1 ([11]; plate C2, inhibitor 100 uM): 2; Inhibition level, STK16 ([12]; Genistein <3.7 mM): 0; Inhibition level, MAP2K4 ([13]; plate E6, Genistein <3.7 mM): 0; General Specificity (known) (39 kinases (Table 4)): tyrosine
2 | O=c1c(O)c(-c2ccc(O)c(O)c2)oc2cc(O)cc(O)c12 [Quercetin] | 1 |  | 2 |  |  |  |  |  |  |  |  |  |  | 2 | 0 | 0 | 0 |  | 0 | 0 | 
3 | COc1cc2ncnc(Nc3cccc(Cl)c3)c2cc1OC [AG 1478] | 1 | 2 | 2 | 0 | 2 | 2 | 2 | 2 | 1 | 2 | 0 | 2 | 2 | 1 | 0 | 0 | 1 | 1 | 0 | 0 | Inhibition level, FYN [3, 14]: 2; Inhibition level, PIM1 ([11]; plate C2, inhibitor 100 uM): 1
4 | CN[C@@H]1C[C@H]2O[C@@](C)([C@@H]1OC)n1c3ccccc3c3c4c(c5c6ccccc6n2c5c31)C(=O)NC4 [Staurosporine] |  |  |  |  |  |  |  |  |  |  |  |  |  |  |  |  |  |  |  |  | Inhibition level, FYN [3]: 2; Inhibition level, FGR ([4]; Staurosporine, conc. not given): 2; Inhibition level, STK4 ([9]; Staurosporine, conc. not given): 0; Inhibition level, PIM1 [11]: 2; Inhibition level, STK16 ([12]; Staurosporine 21.5 uM): 2; Inhibition level, MAP2K4 [13]: 0; General Specificity (known) (39 kinases (Table 4)): broad
5 | CC(=O)c1c(O)c(C)c(O)c(Cc2c(O)c3c(c(C(=O)/C=C/c4ccccc4)c2O)OC(C)(C)C=C3)c1O [Rottlerin (Mallotoxin)] | 2 | 2 | 2 | 2 | 2 | 0 | 0 | 0 | 0 | 2 | 0 | 0 | 2 | 1 | 2 | 0 | 0 | 1 | 0 | 1 | Inhibition level, FYN [3, 14]: 2; Inhibition level, PIM1 ([11]; plate C2, inhibitor 100 uM): 2
6 | CC(C)(C)n1nc(-c2ccc(Cl)cc2)c2c(N)ncnc21 [PP2] | 2 | 2 | 2 | 2 | 2 | 2 | 2 | 2 | 2 | 2 | 0 | 2 | 2 | 2 | 2 | 0 | 2 | 2 | 2 | 2 | Inhibition level, PIM1 ([11]; plate C2, inhibitor 100 uM): 2; General Specificity (known) (39 kinases (Table 4)): tyrosine
